Data as given in patent US8003649B2 (AstraZeneca AB, priority 2007, dated 2011).

What follows are compounds tested against T1, Androgen Receptor (AR) (Homo sapiens, UniProt P10275, T878A) (assay: LNCaP Androgen Receptor Down-regulation Cell Assay (immunofluorescence end point)). Conditions: LNCaP prostate carcinoma cells, compound incubation 20-22 hours, 50% reduction of the AR signal.
T1 construct: cell based immuno-fluorescence assay using the LNCaP prostate epithelial cell line; endogenous in cells; host or cells: LNCaP clone FGC (ATCC CRL-1740)
T1 sequence (P10275 1-920 T878A): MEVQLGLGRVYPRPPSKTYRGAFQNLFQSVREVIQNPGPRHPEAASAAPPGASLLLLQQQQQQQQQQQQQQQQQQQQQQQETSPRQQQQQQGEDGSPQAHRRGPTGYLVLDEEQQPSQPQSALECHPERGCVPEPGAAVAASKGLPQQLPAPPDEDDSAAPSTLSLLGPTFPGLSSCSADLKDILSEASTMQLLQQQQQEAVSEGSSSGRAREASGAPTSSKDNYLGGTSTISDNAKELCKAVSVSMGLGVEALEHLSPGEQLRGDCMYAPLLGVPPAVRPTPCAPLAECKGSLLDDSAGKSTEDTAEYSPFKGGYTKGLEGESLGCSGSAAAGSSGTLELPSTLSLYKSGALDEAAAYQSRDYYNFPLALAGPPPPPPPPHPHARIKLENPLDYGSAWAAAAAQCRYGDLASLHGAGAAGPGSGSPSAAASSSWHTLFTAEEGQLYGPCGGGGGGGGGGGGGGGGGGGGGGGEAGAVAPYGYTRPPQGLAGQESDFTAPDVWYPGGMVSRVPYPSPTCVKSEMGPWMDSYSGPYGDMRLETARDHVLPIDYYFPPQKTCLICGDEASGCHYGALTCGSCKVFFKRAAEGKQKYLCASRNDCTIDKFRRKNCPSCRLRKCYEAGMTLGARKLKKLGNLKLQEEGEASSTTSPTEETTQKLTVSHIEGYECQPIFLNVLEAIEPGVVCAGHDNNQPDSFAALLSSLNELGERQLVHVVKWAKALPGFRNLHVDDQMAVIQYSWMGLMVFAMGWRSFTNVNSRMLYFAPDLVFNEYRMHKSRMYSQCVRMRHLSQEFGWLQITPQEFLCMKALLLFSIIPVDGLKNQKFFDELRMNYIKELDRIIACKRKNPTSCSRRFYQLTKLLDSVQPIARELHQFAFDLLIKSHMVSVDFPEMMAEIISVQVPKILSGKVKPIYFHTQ
Type: cell-based
How it was run: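 LNCaP cells in medium with 5% charcoal-stripped FBS were plated overnight, then treated with a compound dilution series for 20-22 h at 37° C. After fixation, permeabilisation and immunostaining, AR-associated green fluorescence was quantified by laser-scanning microplate cytometry; AR down-regulation expressed as IC50 from fitted dose-response curves.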

Structure (SMILES) | IC50
CS(=O)(=O)Oc1cccc(CN2CCN(c3ccc4nnc(C(F)(F)F)n4n3)CC2)c1 [Example 151, [3-[[4-[3-(trifluoromethyl)-[1,2,4]triazolo[4,3-b]pyridazin-6-yl]piperazin-1-yl]methyl]phenyl]methanesulfonate] | 3.1 µM

Same assay, conditions: LNCaP prostate carcinoma cells, compound incubation 20-22 hours, 50% reduction of the AR signal; read-out: Androgen Receptor Down-regulation Assay (a) IC50/μM

DC50 | Structure (SMILES)
7.1 µM | CN(C)CCOc1ccc(CN2CCN(c3ccc4nnc(C(F)(F)F)n4n3)CC2)cc1 [Example 140, N,N-dimethyl-2-[4-[[4-[3-(trifluoromethyl)-[1,2,4]triazolo[4,3-b]pyridazin-6-yl]piperazin-1-yl]methyl]phenoxy]ethanamine]
5.1 µM | COc1ccc(CN2CCN(c3ccc4nnc(C(F)(F)F)n4n3)CC2)cn1 [Example 142, 6-[4-[(6-methoxypyridin-3-yl)methyl]piperazin-1-yl]-3-(trifluoromethyl)-[1,2,4]triazolo[4,3-b]pyridazine]
8.8 µM | FC(F)(F)c1nnc2ccc(N3CCN(Cc4ccc(N5CCOCC5)nc4)CC3)nn12 [Example 143, 6-[4-[(6-morpholin-4-ylpyridin-3-yl)methyl]piperazin-1-yl]-3-(trifluoromethyl)-[1,2,4]triazolo[4,3-b]pyridazine]
4.9 µM | FC(F)(F)c1nnc2ccc(N3CCN(Cc4ccc(Oc5ccccc5)nc4)CC3)nn12 [Example 144, 6-[4-[(6-phenoxypyridin-3-yl)methyl]piperazin-1-yl]-3-(trifluoromethyl)-[1,2,4]triazolo[4,3-b]pyridazine]
2.5 µM | CCOc1ccc(CN2CCN(c3ccc4nnc(C(F)(F)F)n4n3)CC2)cn1 [Example 147, 6-[4-[(6-ethoxypyridin-3-yl)methyl]piperazin-1-yl]-3-(trifluoromethyl)-[1,2,4]triazolo[4,3-b]pyridazine]
3.4 µM | CC(C)Oc1ccc(CN2CCN(c3ccc4nnc(C(F)(F)F)n4n3)CC2)cn1 [Example 148, 6-[4-[(6-propan-2-yloxypyridin-3-yl)methyl]piperazin-1-yl]-3-(trifluoromethyl)-[1,2,4]triazolo[4,3-b]pyridazine]
7.9 µM | OCc1cccc(CN2CCN(c3ccc4nnc(C(F)(F)F)n4n3)CC2)c1 [Example 149, [3-[[4-[3-(trifluoromethyl)-[1,2,4]triazolo[4,3-b]pyridazin-6-yl]piperazin-1-yl]methyl]phenyl]methanol]
7.6 µM | CS(=O)(=O)Nc1cccc(CN2CCN(c3ccc4nnc(C(F)(F)F)n4n3)CC2)c1 [Example 150, N-[3-[[4-[3-(trifluoromethyl)-[1,2,4]triazolo[4,3-b]pyridazin-6-yl]piperazin-1-yl]methyl]phenyl]methanesulfonamide]
6.7 µM | CS(=O)(=O)Oc1ccc(CN2CCN(c3ccc4nnc(C(F)(F)F)n4n3)CC2)cc1 [Example 152, [4-[[4-[3-(trifluoromethyl)-[1,2,4]triazolo[4,3-b]pyridazin-6-yl]piperazin-1-yl]methyl]phenyl]methanesulfonate]
7.9 µM | NC(=O)COc1ccc(CN2CCN(c3ccc4nnc(C(F)(F)F)n4n3)CC2)cc1 [Example 153, 2-[4-[[4-[3-(trifluoromethyl)-[1,2,4]triazolo[4,3-b]pyridazin-6-yl]piperazin-1-yl]methyl]phenoxy]acetamide]
1.6 µM | N#CCOc1ccc(CN2CCN(c3ccc4nnc(C(F)(F)F)n4n3)CC2)cc1 [Example 154, 2-[4-[[4-[3-(trifluoromethyl)-[1,2,4]triazolo[4,3-b]pyridazin-6-yl]piperazin-1-yl]methyl]phenoxy]acetonitrile]
3 µM | CCCc1ccc(CN2CCN(c3ccc4nnc(C(F)(F)F)n4n3)CC2)cc1 [Example 158, 6-[4-[(4-propylphenyl)methyl]piperazin-1-yl]-3-(trifluoromethyl)-[1,2,4]triazolo[4,3-b]pyridazine]
1.4 µM | CCc1ccc(CN2CCN(c3ccc4nnc(C(F)(F)F)n4n3)CC2)cc1 [Example 159, 6-[4-[(4-ethylphenyl)methyl]piperazin-1-yl]-3-(trifluoromethyl)-[1,2,4]triazolo[4,3-b]pyridazine]
6.6 µM | FC(F)(F)c1nnc2ccc(N3CCN(Cc4ccc(N5CCOCC5)cc4)CC3)nn12 [Example 160, 6-[4-[(4-morpholin-4-ylphenyl)methyl]piperazin-1-yl]-3-(trifluoromethyl)-[1,2,4]triazolo[4,3-b]pyridazine]
1.4 µM | FC(F)Oc1ccc(CN2CCN(c3ccc4nnc(C(F)(F)F)n4n3)CC2)cc1 [Example 161, 6-[4-[[4-(difluoromethoxy)phenyl]methyl]piperazin-1-yl]-3-(trifluoromethyl)-[1,2,4]triazolo[4,3-b]pyridazine]
1 µM | FC(F)Oc1cccc(CN2CCN(c3ccc4nnc(C(F)(F)F)n4n3)CC2)c1 [Example 162, 6-[4-[[3-(difluoromethoxy)phenyl]methyl]piperazin-1-yl]-3-(trifluoromethyl)-[1,2,4]triazolo[4,3-b]pyridazine]
3.6 µM | CCOC(=O)/C=C/c1ccc(CN2CCN(c3ccc4nnc(C(F)(F)F)n4n3)CC2)cc1 [Example 163, ethyl (E)-3-[4-[[4-[3-(trifluoromethyl)-[1,2,4]triazolo[4,3-b]pyridazin-6-yl]piperazin-1-yl]methyl]phenyl]prop-2-enoate]
1.7 µM | CS(=O)(=O)c1ccccc1CN1CCCN(c2ccc3nnc(C(F)(F)F)n3n2)CC1 [Example 164, 6-[4-[(2-methylsulfonylphenyl)methyl]-1,4-diazepan-1-yl]-3-(trifluoromethyl)-[1,2,4]triazolo[4,3-b]pyridazine]
1.7 µM | CS(=O)(=O)c1cccc(CN2CCCN(c3ccc4nnc(C(F)(F)F)n4n3)CC2)c1 [Example 165, 6-[4-[(3-methylsulfonylphenyl)methyl]-1,4-diazepan-1-yl]-3-(trifluoromethyl)-[1,2,4]triazolo[4,3-b]pyridazine]
2.4 µM | COc1ccccc1CN1CCCN(c2ccc3nnc(C(F)(F)F)n3n2)CC1 [Example 167, 6-[4-[(2-methoxyphenyl)methyl]-1,4-diazepan-1-yl]-3-(trifluoromethyl)-[1,2,4]triazolo[4,3-b]pyridazine]
1.6 µM | FC(F)(F)c1ccc(CN2CCCN(c3ccc4nnc(C(F)(F)F)n4n3)CC2)cc1 [Example 168, 3-(trifluoromethyl)-6-[4-[[4-(trifluoromethyl)phenyl]methyl]-1,4-diazepan-1-yl]-[1,2,4]triazolo[4,3-b]pyridazine]
0.92 µM | Fc1ccccc1CN1CCCN(c2ccc3nnc(C(F)(F)F)n3n2)CC1 [Example 169, 6-[4-[(2-fluorophenyl)methyl]-1,4-diazepan-1-yl]-3-(trifluoromethyl)-[1,2,4]triazolo[4,3-b]pyridazine]
0.61 µM | N#Cc1ccc(CN2CCCN(c3ccc4nnc(C(F)(F)F)n4n3)CC2)cc1 [Example 170, 4-[[4-[3-(trifluoromethyl)-[1,2,4]triazolo[4,3-b]pyridazin-6-yl]-1,4-diazepan-1-yl]methyl]benzonitrile]
0.62 µM | N#Cc1cccc(CN2CCCN(c3ccc4nnc(C(F)(F)F)n4n3)CC2)c1 [Example 171, 3-[[4-[3-(trifluoromethyl)-[1,2,4]triazolo[4,3-b]pyridazin-6-yl]-1,4-diazepan-1-yl]methyl]benzonitrile]
0.81 µM | Fc1cccc(CN2CCCN(c3ccc4nnc(C(F)(F)F)n4n3)CC2)c1 [Example 172, 6-[4-[(3-fluorophenyl)methyl]-1,4-diazepan-1-yl]-3-(trifluoromethyl)-[1,2,4]triazolo[4,3-b]pyridazine]
0.68 µM | FC(F)(F)c1nnc2ccc(N3CCCN(Cc4cccc(Cl)c4)CC3)nn12 [Example 175, 6-[4-[(3-chlorophenyl)methyl]-1,4-diazepan-1-yl]-3-(trifluoromethyl)-[1,2,4]triazolo[4,3-b]pyridazine]
0.85 µM | FC(F)(F)c1nnc2ccc(N3CCCN(Cc4ccc(Cl)cc4)CC3)nn12 [Example 176, 6-[4-[(4-chlorophenyl)methyl]-1,4-diazepan-1-yl]-3-(trifluoromethyl)-[1,2,4]triazolo[4,3-b]pyridazine]

Structure (SMILES) | DC50
CCCCOc1cccc(CN2CCN(c3ccc4nnc(C(F)(F)F)n4n3)CC2)c1 [Example 157, 6-[4-[(3-butoxyphenyl)methyl]piperazin-1-yl]-3-(trifluoromethyl)-[1,2,4]triazolo[4,3-b]pyridazine] | 2.4 µM
